In ChEMBL document CHEMBL5104158, “Synthesis and human monoamine oxidase inhibitory activity of novel C2-, C3- and C4-substituted phthalonitriles” (Bioorg Med Chem Lett, 2022):
pIC50, pKi: −log10 of the molar value.

Key:
[1] = biological target: T1, Amine oxidase [flavin-containing] B (Homo sapiens, UniProt P27338); experiment: Inhibition of human MAO-B assessed as inhibition of H2O2 production using p-tyramine as substrate
T1 sequence (P27338 whole entry): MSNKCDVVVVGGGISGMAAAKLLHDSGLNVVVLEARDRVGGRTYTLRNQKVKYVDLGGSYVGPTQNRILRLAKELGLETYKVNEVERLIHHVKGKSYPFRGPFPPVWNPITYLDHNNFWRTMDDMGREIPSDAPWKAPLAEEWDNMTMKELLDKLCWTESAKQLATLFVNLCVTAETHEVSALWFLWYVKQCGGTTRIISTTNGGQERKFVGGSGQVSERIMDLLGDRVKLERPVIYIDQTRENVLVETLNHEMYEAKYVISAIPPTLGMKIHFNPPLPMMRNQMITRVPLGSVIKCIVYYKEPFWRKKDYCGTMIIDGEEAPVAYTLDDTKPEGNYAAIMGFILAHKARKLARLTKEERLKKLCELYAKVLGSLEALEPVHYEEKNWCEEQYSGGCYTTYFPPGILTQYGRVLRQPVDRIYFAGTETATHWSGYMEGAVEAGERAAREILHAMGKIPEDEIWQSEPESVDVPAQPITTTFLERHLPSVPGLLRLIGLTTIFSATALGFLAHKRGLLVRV

[2] = biological target: T2, Amine oxidase [flavin-containing] A (Homo sapiens, UniProt P21397); experiment: Inhibition of human MAO-A assessed as inhibition of H2O2 production using p-tyramine as substrate at 100 uM
T2 sequence (P21397 whole entry): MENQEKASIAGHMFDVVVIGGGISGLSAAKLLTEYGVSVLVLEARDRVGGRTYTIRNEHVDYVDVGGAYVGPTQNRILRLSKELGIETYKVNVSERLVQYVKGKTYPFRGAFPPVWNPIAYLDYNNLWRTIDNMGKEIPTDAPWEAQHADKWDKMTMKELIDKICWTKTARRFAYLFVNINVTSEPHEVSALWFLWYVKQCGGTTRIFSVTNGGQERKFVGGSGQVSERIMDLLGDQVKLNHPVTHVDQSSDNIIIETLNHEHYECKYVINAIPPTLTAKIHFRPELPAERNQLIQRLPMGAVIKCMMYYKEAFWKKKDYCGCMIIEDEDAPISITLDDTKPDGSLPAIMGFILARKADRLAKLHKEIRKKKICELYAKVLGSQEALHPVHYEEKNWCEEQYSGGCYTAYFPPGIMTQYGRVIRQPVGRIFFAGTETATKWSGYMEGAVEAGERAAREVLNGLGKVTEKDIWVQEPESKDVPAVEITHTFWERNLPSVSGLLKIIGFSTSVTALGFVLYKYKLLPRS

[3] = species: Homo sapiens; experiment: Selectivity index, ratio of IC50 for inhibition of human MAO-A to IC50 for inhibition of human MAO-B
[4] = biological target: T2, Amine oxidase [flavin-containing] A; experiment: Inhibition of human MAO-A assessed as inhibition of H2O2 production using p-tyramine as substrate
[5] = biological target: T1, Amine oxidase [flavin-containing] B; experiment: Mixed competitive inhibition of human MAO-B using p-tyramine as substrate by Lineweaver-Burk plot analysis
[6] = biological target: T1, Amine oxidase [flavin-containing] B; experiment: Reversible inhibition of human MAO-B assessed as enzyme residual activity using p-tyramine as substrate measured after dialysis by dialysis method
[7] = biological target: T1, Amine oxidase [flavin-containing] B; experiment: Inhibition of human MAO-B assessed as enzyme residual activity using p-tyramine as substrate

| SMILES | pIC50 [1] | inhibition at 100 µM [2] [%] | Ratio IC50 [3] | pIC50 [4] | pKi [5] | Activity [6] [%] | Activity [7] [%] |
| --- | --- | --- | --- | --- | --- | --- | --- |
| CC(=O)Oc1ccc(-c2ccccc2)cc1/N=N/c1ccc(C#N)c(C#N)c1 | 5.42 | 27 | > 26.2 | – | – | – | – |
| COc1cc(S)c(/N=N/c2cccc(C#N)c2C#N)cc1OC | 4.10 | – | 0.22 | 4.75 | – | – | – |
| N#Cc1ccc(/N=N/c2ccc(O)c(-c3ccccc3)c2)cc1C#N | 5.95 | – | 0.69 | 6.11 | – | – | – |
| N#Cc1ccc(/N=N/c2cc(-c3ccccc3)ccc2O)cc1C#N | 6.15 | – | 42 | 4.53 | – | – | – |
| COc1ccc(/N=N/c2ccc(C#N)c(C#N)c2)cc1-c1ccccc1 | 5.84 | – | 0.62 | 6.05 | – | – | – |
| COc1cc(S)c(/N=N/c2ccc(C#N)c(C#N)c2)cc1OC | 6.13 | – | 75.2 | 4.25 | 7.11 | 83.3 | 34.8 |
